Data from patent US6818780B2, “P-hydroxyphenyl propionic acid derivatives as antiproliferative agents” (Consejo Superior de Investigaciones Cientificas, priority 2000, dated 2004).

Experiments:
[1] = tested on: human peripheral blood mononuclear cells (CMSP); test: Test on lymphocyte proliferation: human peripheral blood mononuclear cells (3H-thymidine incorporation), with or without rhIL-2; format: cell-based; settings: for Proliferation of human peripheral blood mononuclear cells in the presence of rhIL-2, Con A 2 μg/ml (cpm ± DS) / Proliferation of human peripheral blood mononuclear cells in the presence of rhIL-2, Medium (cpm ± DS) / Proliferation of human peripheral blood mononuclear cells in the presence of rhIL-2, PHA 10 μg/ml (cpm ± DS) / Proliferation of human peripheral blood mononuclear cells in the presence of rhIL-2, aCD3 5 μg/ml (cpm ± DS) / Proliferation of human peripheral blood mononuclear cells in the presence of rhIL-2, aCD3 + Con A (cpm ± DS) / Proliferation of human peripheral blood mononuclear cells in the presence of rhIL-2, aCD3 + PHA (cpm ± DS): rhIL-2 100 UI/ml
From the text: Tests on Human Peripheral Blood Mononuclear Cells Material and Methods:
In order to study more deeply the effects of lactone on cell proliferation, we checked whether the effects described in the above section on cells of murine origin were specific to the cell type and the species or whether, on the other hand, these effects were xeno-independent. For this, we purified human peripheral blood mononuclear cells from healthy controls and we proceeded to study the possible effects of inhibition on the proliferative activity of peripheral blood mononuclear cells (CMSP) from humans, induced by different mitogenic agents acting alone and/or in costimulation with other mitogens and in the presence or absence of recombinant human interleukin 2 (rhIL-2).
Mitogens: Phytohaemaglutinin M (PHA) (Difco Lab., Detroit, Mich., USA), Concanavalin A (Con A, 2 μg/ml, Sigma Chemical Co., Mich., USA), Immobilised anti-CD3 (OKT3, 5 μg/ml, Ortho-mune, Orthodiagnostic System) and rhIL-2 (100 IU/ml, Hoffman-La Roche, N.J., USA).
All the reagents included in these tests were diluted in RPMI 1640 culture medium (Whitaker Bioproducts, Walkersville, USA) supplemented with 10% of decomplemented foetal calf serum (Biochrom K G, Berlin), L-glutamin (2 mM, Biochrom K G), Hepes (25 mM, Biochrom K G) and antibiotic (1% penicillin streptomycin, Difco Lab, Detroit, Mich., USA).
Also, all the mitogens were optimised in a dose response way in order to obtaining the maximum proliferative response after 5 days of culture.
Venous blood: The CMSP were obtained from venous blood extracted by antecubital venous puncture. 50 ml of blood were extracted to which were added 50 U of calcic heparin and the mixture was diluted 1/1 (vol/vol) with PSS.
Human mononucleated cells: In order to isolate the CMSP they were proceeded to be separated from the rest of the blood components by means of the formation of a density gradient on Ficoll. The cells thus obtained are resuspended in PSS and centrifuged at 400×g for 10 minutes (washing process) and then resuspended in PSS. This operation is repeated three times. In the last of them, PSS is replaced with complete medium.
(§1) General culture conditions: All cell cultures were developed under conditions of sterility in a vertical laminar flow chamber, using single-use sterile materials or materials sterilised in an autoclave or with ethylene oxide. The cultures were conserved in a stove kept at a temperature of 37° C., in an atmosphere with 5% CO2 and relative humidity of 95%. In the various experiments performed, the purified CMSP cell preparations were incubated in sterile dishes with 96 wells at concentrations of 5×10^4 cells/well (200 μl) in the presence of different concentrations of different mitogens for 5 days.
(§2) The method used for quantifying the cell proliferation was analysis of the incorporation of ^3H-thymidine (^3H-T) into DNA synthesised de novo, detecting the emission of β radiation from the dry extracts of cell cultures to which the tritiated base had been added before its finalisation and collection. The synthesis of DNA was done in triplicate on sterile dishes with 96 flat-bottom wells.
(§3) From 20 to 24 hour prior to terminating the cell culture, 1 μCi of ^3H-T was added to each well containing medium; the cultures were gathered by suction through a glass filter, using a Skatron culture collector for this.
(§4) The synthesis of DNA has been expressed in counts per minute (cpm). Each test was conducted in triplicate, with those data having a variability greater than 10% compared to the mean of the triplicate being rejected, since they could indicate a technical error or contamination in the culture. The cultures were carried out at a constant cell volume per well, as well as at a constant volume of 200 μl.
Negative Control: Cells in the Presence of Complete Culture Medium
Positive Control: Stimulation of Cells without the Presence of Lactone […]

[2] = tested on: human peripheral blood mononuclear cells; test: Stability studies: antiproliferative activity of lactone kept one year in DMSO, human peripheral blood mononuclear cells; format: cell-based; settings: for Proliferation of human peripheral blood mononuclear cells, Medium (cpm ± DS) / Proliferation of human peripheral blood mononuclear cells, PHA 10 μg/ml (cpm ± DS) / Proliferation of human peripheral blood mononuclear cells, PHA + rhIL-2 (cpm ± DS): sample kept one year at room temperature at 40.0 mg/ml in DMSO
Method: as §1, §2, §3, §4
The sample remains for one year at room temperature and at a concentration of 40.0 mg/ml in DMSO.

[3] = Lactone 10 μg/ml, no rhIL-2, 5 days
[4] = Lactone 100 μg/ml, no rhIL-2, 5 days

C=C1C(=O)OC(CCc2ccc(OC)cc2)C1C (stereo not shown) [lactone]
Proliferation of human peripheral blood mononuclear cells, aCD3 5 μg/ml (cpm ± DS) [1, 3]: 119 ± 7 cpm
Proliferation of human peripheral blood mononuclear cells, aCD3 + Con A (cpm ± DS) [1, 3]: 11 ± 1 cpm
Proliferation of human peripheral blood mononuclear cells, aCD3 + PHA (cpm ± DS) [1, 3]: 23 ± 7 cpm
Proliferation of human peripheral blood mononuclear cells in the presence of rhIL-2, Con A 2 μg/ml (cpm ± DS) ([1]; Lactone 10 μg/ml, 5 days): 611 ± 75 cpm
Proliferation of human peripheral blood mononuclear cells in the presence of rhIL-2, Medium (cpm ± DS) ([1]; Lactone 10 μg/ml, 5 days): 866 ± 66 cpm
Proliferation of human peripheral blood mononuclear cells in the presence of rhIL-2, PHA 10 μg/ml (cpm ± DS) ([1]; Lactone 10 μg/ml, 5 days): 579 ± 1033 cpm
Proliferation of human peripheral blood mononuclear cells in the presence of rhIL-2, aCD3 5 μg/ml (cpm ± DS) ([1]; Lactone 10 μg/ml, 5 days): 489 ± 25 cpm
Proliferation of human peripheral blood mononuclear cells in the presence of rhIL-2, aCD3 + Con A (cpm ± DS) ([1]; Lactone 10 μg/ml, 5 days): 164 ± 65 cpm
Proliferation of human peripheral blood mononuclear cells in the presence of rhIL-2, aCD3 + PHA (cpm ± DS) ([1]; Lactone 10 μg/ml, 5 days): 304 ± 35 cpm
Proliferation of human peripheral blood mononuclear cells, Con A 2 μg/ml (cpm ± DS) [1, 4]: 204 ± 43 cpm
Proliferation of human peripheral blood mononuclear cells, Medium (cpm ± DS) [1, 4]: 104 ± 26 cpm
Proliferation of human peripheral blood mononuclear cells, PHA 10 μg/ml (cpm ± DS) [1, 4]: 1086 ± 308 cpm
Proliferation of human peripheral blood mononuclear cells, aCD3 5 μg/ml (cpm ± DS) [1, 4]: 39 ± 10 cpm
Proliferation of human peripheral blood mononuclear cells, aCD3 + Con A (cpm ± DS) [1, 4]: 8 ± 6 cpm
Proliferation of human peripheral blood mononuclear cells, aCD3 + PHA (cpm ± DS) [1, 4]: 13 ± 4 cpm
Proliferation of human peripheral blood mononuclear cells in the presence of rhIL-2, Con A 2 μg/ml (cpm ± DS) ([1]; Lactone 100 μg/ml, 5 days): 532 ± 109 cpm
Proliferation of human peripheral blood mononuclear cells in the presence of rhIL-2, Medium (cpm ± DS) ([1]; Lactone 100 μg/ml, 5 days): 918 ± 1 cpm
Proliferation of human peripheral blood mononuclear cells in the presence of rhIL-2, PHA 10 μg/ml (cpm ± DS) ([1]; Lactone 100 μg/ml, 5 days): 892 ± 199 cpm
Proliferation of human peripheral blood mononuclear cells in the presence of rhIL-2, aCD3 5 μg/ml (cpm ± DS) ([1]; Lactone 100 μg/ml, 5 days): 400 ± 44 cpm
Proliferation of human peripheral blood mononuclear cells in the presence of rhIL-2, aCD3 + Con A (cpm ± DS) ([1]; Lactone 100 μg/ml, 5 days): 237 ± 109 cpm
Proliferation of human peripheral blood mononuclear cells in the presence of rhIL-2, aCD3 + PHA (cpm ± DS) ([1]; Lactone 100 μg/ml, 5 days): 286 ± 10 cpm
Lactone concentration at which the blastogen response induced in CMSP falls by 50% ([1]; induced by Con A+rhIL-2): 0.27 µg/mL
Lactone concentration at which the blastogen response induced in CMSP falls by 50% ([1]; induced by Concavalin A (Con A)): 0.5 µg/mL
Lactone concentration at which the blastogen response induced in CMSP falls by 50% ([1]; induced by PHA+rhIL-2): 0.29 µg/mL
Lactone concentration at which the blastogen response induced in CMSP falls by 50% ([1]; induced by aCD3+Con A): 0.21 µg/mL
Lactone concentration at which the blastogen response induced in CMSP falls by 50% ([1]; induced by aCD3+PHA): 0.24 µg/mL
Lactone concentration at which the blastogen response induced in CMSP falls by 50% ([1]; induced by immobilised aCD3+Con A+rhIL-2): 0.25 µg/mL
Lactone concentration at which the blastogen response induced in CMSP falls by 50% ([1]; induced by immobilised aCD3+PHA+rhIL-2): 0.26 µg/mL
Lactone concentration at which the blastogen response induced in CMSP falls by 50% ([1]; induced by immobilised aCD3+rhIL-2): 0.24 µg/mL
Lactone concentration at which the blastogen response induced in CMSP falls by 50% ([1]; induced by immobilised anti-CD3 (aCD3)): 0.06 µg/mL
Lactone concentration at which the blastogen response induced in CMSP falls by 50% ([1]; induced by phytohaemaglutinin M (PHA)): 0.25 µg/mL
Lactone concentration at which the blastogen response induced in CMSP falls by 50% ([1]; induced by rhIL-2): 0.26 µg/mL
Lactone concentration at which the spontaneous blastogen response of the CMSP falls by 50% ([1]; no mitogen): 0.66 µg/mL
Proliferation of human peripheral blood mononuclear cells, Medium (cpm ± DS) ([2]; Lactone 0.25 μg/ml): 283 ± 9 cpm
Proliferation of human peripheral blood mononuclear cells, PHA 10 μg/ml (cpm ± DS) ([2]; Lactone 0.25 μg/ml): 60428 ± 5820 cpm
Proliferation of human peripheral blood mononuclear cells, PHA + rhIL-2 (cpm ± DS) ([2]; Lactone 0.25 μg/ml): 144693 ± 9470 cpm
Proliferation of human peripheral blood mononuclear cells, Medium (cpm ± DS) ([2]; Lactone 100 μg/ml): 47 ± 5 cpm
Proliferation of human peripheral blood mononuclear cells, PHA 10 μg/ml (cpm ± DS) ([2]; Lactone 100 μg/ml): 906 ± 251 cpm
Proliferation of human peripheral blood mononuclear cells, PHA + rhIL-2 (cpm ± DS) ([2]; Lactone 100 μg/ml): 341 ± 21 cpm
Stability over time of the product dissolved in dimethylsulphoxide (DMSO) ([2]; one year at room temperature, 40.0 mg/ml in DMSO, judged by antiproliferative activity): the antiproliferative biological activity of lactone is demonstrated
